Results from patent US20250296938A1, “Compounds that Interact with the Ras Superfamily for the Treatment of Cancers, Inflammatory Diseases, Rasopathies, and Fibrotic Disease” (SHY Therapeutics, LLC, priority 2018, published 2025).
Read-outs that look alike come from different tables or passages of the source.

Experiments:
Experiment in all cases: Ras GTP binding domain inhibition assay (Cy3-GTP/Cy5-GTP competition)
KRas G12D mutant = biological target: T1, KRas G12D mutant (Homo sapiens, UniProt P01116, G12D); settings: 20 μM
T1 construct: fused on or other part: His tag, used for capture on nickel-coated plates
Method: (§1) The following method was developed as specific assay for the following proteins: KRas wild type, KRas Q61H mutant, KRas G12C mutant, KRas G12D mutant, HRas wild type, Rac-1, and Rho-A.
(§2) • 25 mM Tris-HCl, pH 7.4 • 27 mM KCl • 137 mM NaCl • 1 mM MgCl2 • 1 mM DTT
(§3) • 50 mM Tris-HCl, pH 7.0 • 1 mM MgCl2 • 1 mM DTT
(§4) The small GTPases proteins: KRas wild type. KRas Q61H mutant, KRas G12C mutant, KRas G12D mutants, HRas wild type, Rac-1, and Rho-A were expressed as His-tagged proteins. In addition, the Guanosine nucleotide Exchange Factor (GEF) Sos protein (residues 556-1049) was expressed as a His-tagged protein. In cells, the guanine nucleotide exchange factor Sos protein promotes activation of Ras proteins by stimulating an exchange of GDP for GTP. The inclusion of Sos to the Ras GTP binding domain inhibition assay may be considered as an alternative representation of physiological cellular conditions for evaluating the inhibitory activity of some of the tested small molecules.
(§5) For the assay, all purified small GTPases proteins were diluted in Buffer-I or Buffer-II to a final concentration of 10-30 μg/mL. 200 μL of each diluted protein was added to a nickel-coated 96-well plate and incubated overnight at 4° C. Then the protein solution was discarded and 200 μL of Buffer-I or Buffer-II was added to each well in the presence of 1% DMSO. Compounds to be tested were added to the protein-coated wells at final concentration of 20 μM, and incubated for 3 hours at room temperature with and without […] of Sos added to the final hour of the incubation. When performing IC50 measurements a serial dilution of all tested concentrations was added. Then Cy3-GTP or Cy5-GTP was added to each well to a final concentration of 100 nM. The labeled GTP was incubated for 45 minutes at room temperature. Following GTP incubation, wells were washed 3× in Buffer-I or Buffer-II and 200 μL of Buffer-I or Buffer-II was added to each well. Following washes, the amount of bound labeled-GTP was measured using a SpectraMax M3 (Molecular Devices).

KRas Q61H mutant = system: KRas Q61H mutant; design: species or system human; settings: 20 μM; for KRas Q61H mutant + SOS: % inh.: with SOS; for KRas Q61H mutant: % inh.: without SOS
Method: as §1, §2, §3, §4, §5

KRas wild type = system: KRas wild type; design: species or system human; settings: 20 μM; for KRas wild type + SOS: % inh.: with SOS; for KRas wild type: % inh.: without SOS
Method: as §1, §2, §3, §4, §5

KRas G12C mutant = system: KRas G12C mutant; design: species or system human; settings: 20 μM; for KRas G12C mutant + SOS: % inh.: with SOS; for KRas G12C mutant: % inh.: without SOS
Method: as §1, §2, §3, §4, §5

[1] = with SOS, read-out: KRas G-12D mutant + SOS: % inh.
[2] = without SOS, read-out: KRas G12D mutant: % inh.

| Structure (SMILES) | inhibition at 20 µM (KRas G12D mutant; [1]) [%] | inhibition at 20 µM (KRas G12D mutant; [2]) [%] | KRas Q61H mutant + SOS: % inh. (KRas Q61H mutant) | KRas Q61H mutant: % inh. (KRas Q61H mutant) | KRas wild type + SOS: % inh. (KRas wild type) | KRas wild type: % inh. (KRas wild type) | KRas G12C mutant + SOS: % inh. (KRas G12C mutant) | KRas G12C mutant: % inh. (KRas G12C mutant) |
| --- | --- | --- | --- | --- | --- | --- | --- | --- |
| COc1cccc(Oc2nc(-c3ccccn3)nc(O)c2OC)c1 [drawing 801] | 51 to 75 | 76 to 100 | C (51-75% inhibition) | D (76-100% inhibition) | C (51-75% inhibition) | D (76-100% inhibition) | C (51-75% inhibition) | C (51-75% inhibition) |
| COc1c(O)nc(-c2ccccn2)nc1Oc1cccnc1 [drawing 802] | 51 to 75 | 51 to 75 | C (51-75% inhibition) | D (76-100% inhibition) | B (26-50% inhibition) | D (76-100% inhibition) | C (51-75% inhibition) | C (51-75% inhibition) |
| COc1c(O)nc(-c2ccccn2)nc1Oc1ccc2ncccc2c1 [drawing 804] | 26 to 50 | 51 to 75 | C (51-75% inhibition) | C (51-75% inhibition) | B (26-50% inhibition) | C (51-75% inhibition) | C (51-75% inhibition) | C (51-75% inhibition) |
| COCC1CN(c2nc(-c3nccn3C)nc3sc(-c4cccc(OC)c4F)c(-c4ccc(OC)cc4)c23)C1 [drawing 805] | 51 to 75 | 51 to 75 | D (76-100% inhibition) | D (76-100% inhibition) | D (76-100% inhibition) | C (51-75% inhibition) | D (76-100% inhibition) | B (26-50% inhibition) |
| COc1ccc(-c2c(-c3cccc(OC)c3F)sc3nc(-c4nccn4C)nc(N4CCC(OC)C4)c23)cc1 (stereo not drawn) [drawing 806] | 51 to 75 | 51 to 75 | D (76-100% inhibition) | C (51-75% inhibition) | D (76-100% inhibition) | C (51-75% inhibition) | D (76-100% inhibition) | A (1-25% inhibition) |
| Cc1cn(C)c(-c2nc(O)c3scc(-c4ccccn4)c3n2)n1 [drawing 807] | 26 to 50 | 76 to 100 | C (51-75% inhibition) | A (1-25% inhibition) | B (26-50% inhibition) | D (76-100% inhibition) | C (51-75% inhibition) | C (51-75% inhibition) |
| Cc1cnc(-c2nc(O)c3scc(-c4ccccn4)c3n2)n1C [drawing 808] | 1 to 25 | 51 to 75 | B (26-50% inhibition) | A (1-25% inhibition) | A (1-25% inhibition) | C (51-75% inhibition) | B (26-50% inhibition) | C (51-75% inhibition) |
| COc1ccc(Oc2nc(-c3ccccn3)nc(O)c2OC)cc1 [drawing 815] | 26 to 50 | 76 to 100 | C (51-75% inhibition) | D (76-100% inhibition) | B (26-50% inhibition) | D (76-100% inhibition) | C (51-75% inhibition) | D (76-100% inhibition) |

The remaining lines, values ahead:

| inhibition at 20 µM (KRas G12D mutant; [1]) [%] | inhibition at 20 µM (KRas G12D mutant; [2]) [%] | KRas Q61H mutant + SOS: % inh. (KRas Q61H mutant) | KRas Q61H mutant: % inh. (KRas Q61H mutant) | KRas wild type + SOS: % inh. (KRas wild type) | KRas wild type: % inh. (KRas wild type) | KRas G12C mutant + SOS: % inh. (KRas G12C mutant) | KRas G12C mutant: % inh. (KRas G12C mutant) | Structure (SMILES) |
| --- | --- | --- | --- | --- | --- | --- | --- | --- |
| 26 to 50 | 26 to 50 | B (26-50% inhibition) | B (26-50% inhibition) | A (1-25% inhibition) | B (26-50% inhibition) | B (26-50% inhibition) | C (51-75% inhibition) | CC(C)CN(C)C(=O)c1nc(-c2ccccn2)nc(O)c1O [drawing 798] |
| 26 to 50 | 26 to 50 | B (26-50% inhibition) | C (51-75% inhibition) | B (26-50% inhibition) | C (51-75% inhibition) | B (26-50% inhibition) | C (51-75% inhibition) | CN(Cc1ccccc1)C(=O)c1nc(-c2ccccn2)nc(O)c1O [drawing 799] |
| 26 to 50 | 26 to 50 | A (1-25% inhibition) | B (26-50% inhibition) | A (1-25% inhibition) | C (51-75% inhibition) | A (1-25% inhibition) | B (26-50% inhibition) | O=C(c1nc(-c2ccccn2)nc(O)c1O)N1CCOCC1 [drawing 800] |
| 51 to 75 | 51 to 75 | C (51-75% inhibition) | D (76-100% inhibition) | B (26-50% inhibition) | D (76-100% inhibition) | C (51-75% inhibition) | C (51-75% inhibition) | COc1c(O)nc(-c2ccccn2)nc1Oc1cnn(C)c1 [drawing 803] |
| 26 to 50 | 51 to 75 | B (26-50% inhibition) | D (76-100% inhibition) | A (1-25% inhibition) | D (76-100% inhibition) | B (26-50% inhibition) | C (51-75% inhibition) | O=C(NC1CCC1)c1nc(-c2ccccn2)nc(O)c1O [drawing 809] |
| 1 to 25 | 1 to 25 | A (1-25% inhibition) | A (1-25% inhibition) | A (1-25% inhibition) | B (26-50% inhibition) | A (1-25% inhibition) | C (51-75% inhibition) | COCCN(C)C(=O)c1nc(-c2ccccn2)nc(O)c1O [drawing 810] |
| 1 to 25 | 51 to 75 | B (26-50% inhibition) | C (51-75% inhibition) | A (1-25% inhibition) | D (76-100% inhibition) | B (26-50% inhibition) | D (76-100% inhibition) | CC(C)CNC(=O)c1nc(-c2ccccn2)nc(O)c1O [drawing 811] |
| 1 to 25 | 51 to 75 | B (26-50% inhibition) | C (51-75% inhibition) | A (1-25% inhibition) | D (76-100% inhibition) | B (26-50% inhibition) | D (76-100% inhibition) | O=C(NC1CCCC1)c1nc(-c2ccccn2)nc(O)c1O [drawing 812] |
| 26 to 50 | 26 to 50 | C (51-75% inhibition) | D (76-100% inhibition) | B (26-50% inhibition) | D (76-100% inhibition) | C (51-75% inhibition) | C (51-75% inhibition) | COc1c(O)nc(-c2ccccn2)nc1Oc1ccccc1 [drawing 813] |
| 26 to 50 | 51 to 75 | C (51-75% inhibition) | B (26-50% inhibition) | B (26-50% inhibition) | D (76-100% inhibition) | B (26-50% inhibition) | A (1-25% inhibition) | COCCc1ccc(Oc2nc(-c3ccccn3)nc(O)c2OC)cc1 [drawing 814] |
